Laboratory results: PubChem BioAssay (NCI)
Values joined by “and” are separate entries in the source; they are usually repeats but may differ in a detail not shown here. Identical values can stand only once.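 All cell lines were grown in 96-well plates and treated with compound for 48 hours. GI50 = concentration required for 50% inhibition of growth. At the TGI there is no net growth.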

System: SF-539 CNS
Experiment: inhibition of tumour cell growth, NCI panel, 48 h

Row | SMILES | TGI [µM]
1 | COc1ccnc2c1C(=O)c1nc3ccccc3c3ccnc-2c13 | 33.7
2 | O=C(O)c1ccc(NNc2cc(=O)[nH]c(=O)[nH]2)cc1 | > 100
3 | COC(=O)C1OC(Oc2cc(O)c3c(=O)cc(-c4ccc(O)cc4)oc3c2)C(O)C(O)C1O (stereo not given) | > 100
4 | C=CCn1c(=O)n(CC=C)c(=O)n(CC=C)c1=O | > 100
5 | COc1cc(/C=C2\C[C@H]3[C@@H]4CC=C5C[C@@H](O)CC[C@]5(C)[C@H]4CC[C@]3(C)C2=O)cc(OC)c1OC | > 100
6 | CC1=C(Br)C(Br)=C(C)S1=O | 27.7
7 | CC1(C)c2ccccc2C(=O)C12CCC(=O)CC2 | > 100
8 | Cc1cc(C)cc(C(=N)c2ccccc2Cc2cccc3ccccc23)c1 | 30
9 | CN(C)C(=O)OCOC(=O)N(C)C | > 100
10 | CCOC(=O)C1=C(Nc2cccc(OC)c2)OCC1=O | > 100
11 | CC(=O)OCC1OC(Nc2ncc(-c3ccc(C)cc3)s2)C(OC(C)=O)C(OC(C)=O)C1OC(C)=O (stereo not given) | > 82.6
12 | CNC(=S)N/N=C(C)\C(=N/NC(=S)NC)c1ccccc1 | > 100
13 | CCCCN1C=CN2c3nc4cc(C)c(C)cc4n3C(C(=O)OC)=C(C(=O)OC)C12 (stereo not given) | > 100
14 | C#CCn1ncc2c(SCc3ccccc3)ncnc21 | > 100
15 | CCCCCC(C[N+]1(C)CCOCC1)C(=O)/C=C/c1ccccc1 (stereo not given) | 23.5
16 | CC1=CC(C2/C(=N/O)C=C(C)CC2(C)C)C(O)C(C)(C)C1 (stereo not given) | 41.7
17 | C/C(=C1/CCCC2(N=NCC2c2ccccc2)C1=O)c1ccccc1 (stereo not given) | > 100

System: SK-OV-3 ovarian
Experiment: inhibition of tumour cell growth, NCI panel, 48 h

Row | SMILES | TGI | GI50 [µM]
18 | COc1ccc2c3c1O[C@H]1C(O)CCC4(O)[C@@H](C2)NCC[C@]314 (stereo not given in full) | > 100 µM | –
19 | N#CSc1nc[nH]c1C(N)=O | > 100 µM | –
20 | CN(C)C(=O)NCCN1CCCCCc2ccccc21 | > 100 µM | –
21 | Cc1ccc2c(c1CCCC(C)(C)O)C(=O)C(=O)C(C(C)C)=C2O | > 100 µM | –
22 | C=CCN1C[C@H](C)N([C@H](c2ccc(C(=O)N(CC)CCO)cc2)c2cccc(OC)c2)C[C@H]1C | > 100 µM | –
23 | C=C1C(=O)O[C@H]2[C@H]1[C@@H](OC(=O)C=C(C)C)CC1=C[C@@H](C[C@@]3(C)O[C@@H]23)OC1=O | 36.9 µM and 43.9 µM | 25
24 | O=c1[nH]cc(COCC(F)(F)C(F)(F)C(F)(F)C(F)F)c(=O)[nH]1 | > 100 µM | –
25 | CC(=O)c1csc2c1C(=O)c1scc(C(C)=O)c1C2=O | 4.64 µM | –
26 | O=C1NC(=O)C(CCO)(c2ccccc2)C(=O)N1 | > 100 µM | –
27 | COC(=O)C(=C/c1ccc(OC)cc1)/C(C(=O)O)=C(/C)c1ccccc1 | > 100 µM | –
28 | COC(=O)c1ccc(/C=C2\N=C(C)OC2=O)cc1 | > 100 µM | –
29 | Nc1ccc(C(=O)NN2C(=O)C(Cl)C2c2ccccc2Cl)cc1 (stereo not given) | 29.6 µM | –
30 | CCOC(=O)c1csc(NC(=O)C(C)N2CCCCC2)n1 (stereo not given) | > 100 µM | –
31 | CCN1c2nc3ccccc3nc2N(CC)c2nc3ccccc3nc21 | > 100 µM | –
32 | CCN1CCN(c2ccc(Nc3ccnc4ccc5nn(C)nc5c34)cc2)CC1 | 31.5 µM | –
33 | Cc1cccc2c1Oc1cc(Cl)ccc1C2NC(=O)CCN1CCOCC1 (stereo not given) | > 100 µM | –
34 | C[C@H]1[C@H](C)CC[C@]2(C)CC[C@]3(C)C(=C[C@@H](O)[C@@H]4[C@@]5(C)[C@H](O)[C@@H](O)[C@H](O)C(C)(C)[C@@H]5CC[C@]43C)[C@H]12 | > 100 µM | –
35 | c1cc(-c2ncc(-c3ccc4c(c3)CCCO4)o2)ccn1 | 93.5 µM | –
36 | COc1ccnc2c1C(=O)c1nc3ccccc3c3ccnc-2c13 | 0.645 µM | –

Row | SMILES | TGI | GI50 [µM]
37 | CCN(CC)CCn1nc(N)c2nc3cc(Cl)ccc3nc21 | > 100 µM | –
38 | O=C(O)c1ccc(NNc2cc(=O)[nH]c(=O)[nH]2)cc1 | > 100 µM | –
39 | COc1ccc2c(c1)CCc1c-2[nH]c2ccc(OC)cc12 | > 100 µM | –
40 | COC(=O)C1OC(Oc2cc(O)c3c(=O)cc(-c4ccc(O)cc4)oc3c2)C(O)C(O)C1O (stereo not given) | > 100 µM | –
41 | C=CCn1c(=O)n(CC=C)c(=O)n(CC=C)c1=O | > 100 µM | –
42 | COc1cc(/C=C2\C[C@H]3[C@@H]4CC=C5C[C@@H](O)CC[C@]5(C)[C@H]4CC[C@]3(C)C2=O)cc(OC)c1OC | > 100 µM | –
43 | CC1=C(Br)C(Br)=C(C)S1=O | 65.5 µM | –
44 | CC1(C)c2ccccc2C(=O)C12CCC(=O)CC2 | > 100 µM | –
45 | Cc1cc(C)cc(C(=N)c2ccccc2Cc2cccc3ccccc23)c1 | 41.5 µM | –
46 | O=C1C(Cl)C(c2ccccc2)N1n1cnc2ccccc2c1=O (stereo not given) | > 100 µM | –
47 | CN(C)C(=O)OCOC(=O)N(C)C | > 100 µM | –
48 | CCOC(=O)C1=C(Nc2cccc(OC)c2)OCC1=O | > 100 µM | –
49 | CC(=O)OCC1OC(Nc2ncc(-c3ccc(C)cc3)s2)C(OC(C)=O)C(OC(C)=O)C1OC(C)=O (stereo not given) | > 100 µM | –
50 | CNC(=S)N/N=C(C)\C(=N/NC(=S)NC)c1ccccc1 | > 100 µM | –
51 | CCCCN1C=CN2c3nc4cc(C)c(C)cc4n3C(C(=O)OC)=C(C(=O)OC)C12 (stereo not given) | > 100 µM | –
52 | C#CCn1ncc2c(SCc3ccccc3)ncnc21 | > 100 µM | –
53 | CCCCCC(C[N+]1(C)CCOCC1)C(=O)/C=C/c1ccccc1 (stereo not given) | > 88.6 µM | –
54 | CC1=CC(C2/C(=N/O)C=C(C)CC2(C)C)C(O)C(C)(C)C1 (stereo not given) | 38.1 µM | –
55 | C/C(=C1/CCCC2(N=NCC2c2ccccc2)C1=O)c1ccccc1 (stereo not given) | > 100 µM | –

System: SNB-75 CNS
Experiment: inhibition of tumour cell growth, NCI panel, 48 h

Row | SMILES | TGI [µM]
56 | N#CSc1nc[nH]c1C(N)=O | > 100
57 | Cc1ccc2c(c1CCCC(C)(C)O)C(=O)C(=O)C(C(C)C)=C2O | > 100
58 | C=C1C(=O)O[C@H]2[C@H]1[C@@H](OC(=O)C=C(C)C)CC1=C[C@@H](C[C@@]3(C)O[C@@H]23)OC1=O | 33.3
59 | O=c1[nH]cc(COCC(F)(F)C(F)(F)C(F)(F)C(F)F)c(=O)[nH]1 | > 100
60 | CC(=O)c1csc2c1C(=O)c1scc(C(C)=O)c1C2=O | 4.54
61 | O=C1NC(=O)C(CCO)(c2ccccc2)C(=O)N1 | > 100
62 | Cc1ccc(C2CC(c3ccco3)=NN2c2ccccc2)o1 (stereo not given) | > 100
63 | COC(=O)C(=C/c1ccc(OC)cc1)/C(C(=O)O)=C(/C)c1ccccc1 | > 100
64 | COC(=O)c1ccc(/C=C2\N=C(C)OC2=O)cc1 | > 100
65 | Nc1ccc(C(=O)NN2C(=O)C(Cl)C2c2ccccc2Cl)cc1 (stereo not given) | 31.3
66 | CCOC(=O)c1csc(NC(=O)C(C)N2CCCCC2)n1 (stereo not given) | > 100
67 | CCN1CCN(c2ccc(Nc3ccnc4ccc5nn(C)nc5c34)cc2)CC1 | 26.4
68 | Cc1cccc2c1Oc1cc(Cl)ccc1C2NC(=O)CCN1CCOCC1 (stereo not given) | > 100
69 | c1cc(-c2ncc(-c3ccc4c(c3)CCCO4)o2)ccn1 | 53.5
70 | COc1ccnc2c1C(=O)c1nc3ccccc3c3ccnc-2c13 | 0.589
71 | O=C(O)c1ccc(NNc2cc(=O)[nH]c(=O)[nH]2)cc1 | > 100
72 | COc1ccc2c(c1)CCc1c-2[nH]c2ccc(OC)cc12 | > 100
73 | COC(=O)C1OC(Oc2cc(O)c3c(=O)cc(-c4ccc(O)cc4)oc3c2)C(O)C(O)C1O (stereo not given) | > 100
74 | COc1cc(/C=C2\C[C@H]3[C@@H]4CC=C5C[C@@H](O)CC[C@]5(C)[C@H]4CC[C@]3(C)C2=O)cc(OC)c1OC | 96.3
75 | CC1(C)c2ccccc2C(=O)C12CCC(=O)CC2 | > 100
76 | O=C1C(Cl)C(c2ccccc2)N1n1cnc2ccccc2c1=O (stereo not given) | 82.4
77 | CN(C)C(=O)OCOC(=O)N(C)C | > 100
78 | CCOC(=O)C1=C(Nc2cccc(OC)c2)OCC1=O | > 100
79 | CC(=O)OCC1OC(Nc2ncc(-c3ccc(C)cc3)s2)C(OC(C)=O)C(OC(C)=O)C1OC(C)=O (stereo not given) | > 100
80 | CNC(=S)N/N=C(C)\C(=N/NC(=S)NC)c1ccccc1 | > 100
81 | CCCCN1C=CN2c3nc4cc(C)c(C)cc4n3C(C(=O)OC)=C(C(=O)OC)C12 (stereo not given) | > 100
82 | C#CCn1ncc2c(SCc3ccccc3)ncnc21 | > 100
83 | CCCCCC(C[N+]1(C)CCOCC1)C(=O)/C=C/c1ccccc1 (stereo not given) | 15.7
84 | CC1=CC(C2/C(=N/O)C=C(C)CC2(C)C)C(O)C(C)(C)C1 (stereo not given) | 29.2
85 | C/C(=C1/CCCC2(N=NCC2c2ccccc2)C1=O)c1ccccc1 (stereo not given) | 99.7

System: SR leukemia
Experiment: inhibition of tumour cell growth, NCI panel, 48 h

Row | SMILES | TGI [µM]
86 | COc1ccc2c3c1O[C@H]1C(O)CCC4(O)[C@@H](C2)NCC[C@]314 (stereo not given in full) | > 100
87 | CN(C)C(=O)NCCN1CCCCCc2ccccc21 | > 100
88 | Cc1ccc2c(c1CCCC(C)(C)O)C(=O)C(=O)C(C(C)C)=C2O | > 100
89 | C=CCN1C[C@H](C)N([C@H](c2ccc(C(=O)N(CC)CCO)cc2)c2cccc(OC)c2)C[C@H]1C | > 100
90 | O=c1[nH]cc(COCC(F)(F)C(F)(F)C(F)(F)C(F)F)c(=O)[nH]1 | > 100
91 | Cc1ccc(C2CC(c3ccco3)=NN2c2ccccc2)o1 (stereo not given) | > 100
92 | COC(=O)C(=C/c1ccc(OC)cc1)/C(C(=O)O)=C(/C)c1ccccc1 | > 100
93 | Nc1ccc(C(=O)NN2C(=O)C(Cl)C2c2ccccc2Cl)cc1 (stereo not given) | 31.9
94 | CCN1c2nc3ccccc3nc2N(CC)c2nc3ccccc3nc21 | > 100
95 | CCN1CCN(c2ccc(Nc3ccnc4ccc5nn(C)nc5c34)cc2)CC1 | > 100
96 | Cc1cccc2c1Oc1cc(Cl)ccc1C2NC(=O)CCN1CCOCC1 (stereo not given) | > 100
97 | C[C@H]1[C@H](C)CC[C@]2(C)CC[C@]3(C)C(=C[C@@H](O)[C@@H]4[C@@]5(C)[C@H](O)[C@@H](O)[C@H](O)C(C)(C)[C@@H]5CC[C@]43C)[C@H]12 | > 100
98 | CCN(CC)CCn1nc(N)c2nc3cc(Cl)ccc3nc21 | > 100
99 | O=C(O)c1ccc(NNc2cc(=O)[nH]c(=O)[nH]2)cc1 | > 100
100 | COc1ccc2c(c1)CCc1c-2[nH]c2ccc(OC)cc12 | > 100
101 | CC1=C(Br)C(Br)=C(C)S1=O | 19.3
102 | CC1(C)c2ccccc2C(=O)C12CCC(=O)CC2 | > 100
103 | Cc1cc(C)cc(C(=N)c2ccccc2Cc2cccc3ccccc23)c1 | 41.3
104 | O=C1C(Cl)C(c2ccccc2)N1n1cnc2ccccc2c1=O (stereo not given) | > 100
105 | CCOC(=O)C1=C(Nc2cccc(OC)c2)OCC1=O | > 100
106 | CCCCN1C=CN2c3nc4cc(C)c(C)cc4n3C(C(=O)OC)=C(C(=O)OC)C12 (stereo not given) | > 100
107 | C#CCn1ncc2c(SCc3ccccc3)ncnc21 | > 100
108 | CCCCCC(C[N+]1(C)CCOCC1)C(=O)/C=C/c1ccccc1 (stereo not given) | 39.1
109 | C/C(=C1/CCCC2(N=NCC2c2ccccc2)C1=O)c1ccccc1 (stereo not given) | 51.2
